Results: patent US20120015967A1, “PYRIMIDINE AND PYRIDINE DERIVATIVES AS POSH AND POSH-AP INHIBITORS” (PROTEOLOGICS, LTD., priority 2007, published 2012)
Like-named read-outs stand apart in the source and are kept apart here.

Assays:
hPOSH = molecular target: T1, hPOSH (Homo sapiens, UniProt Q7Z6J0); assay: HTS TR-FRET assay of POSH autoubiquitination; type: biochemical; conditions: in vitro TR-FRET, GST tagged hPOSH with E1 and UbcH5c; read-out: IC50, inhibition of POSH autoubiquitination
T1 construct: a fused GST-RING subunit of POSH protein and two fluorophore-conjugated detection reagents
T1 sequence (Q7Z6J0 12-53 limits assumed): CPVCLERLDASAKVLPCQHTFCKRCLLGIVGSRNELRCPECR
Description: In order to test compounds as inhibitors of POSH, a ubiquitin protein ligase (E3) containing a RING domain that mediates its own ubiquitination in a RING finger-dependent manner in the presence of E1 and E2, a HTS (high-throughput screening) homogeneous TR-FRET (Time-Resolved Fluorescence Resonance Energy Transfer) assay was conducted to monitor POSH autoubiquitination.
The assay employs an ubiquitin-activating enzyme (E1) and an ubiquitin-conjugating enzyme (E2), a fused GST-RING subunit of POSH protein and two fluorophore-conjugated detection reagents, namely anti-GSTXL665 and europium cryptate-labeled ubiquitin. This homogeneous assay is based on FRET between a Eu^3+ cryptate donor and a second fluorescent label (acceptor), allophycocyanin. Allophycocyanin, a 105 kDa phycobiliprotein, is crosslinked to ensure its stability.
The ubiquitination of POSH by ubiquitin cryptate and binding of the anti-GST tagged XL665 brings the fluorophores into close proximity allowing FRET reaction to occur (see diagram).
Self-ubiquitination of hPOSH was determined by homogenous time-resolved fluorescence resonance energy transfer assay (TR-FRET). […]
where: S=actual fluorescence, B=Fluorescence obtained in parallel incubation without cb1-b, C=Fluorescence obtained in reaction without added compounds. […]

HIV-1IIIB = assay: HIV cytoprotection assay, CEM-SS cells infected with HIV-1IIIB (MTS); type: cell-based; conditions: for IC50: read-out: IC50 (concentration inhibiting virus replication by 50%)
Description: (§1) For the HIV cytoprotection assay, CEM-SS cells were used and the viruses HIV-1IIIB, HIV-1RF, or HIV-2ROD.
(§2) Briefly, virus and cells were mixed in the presence of a test compounds and incubated for 6 days. […] Each assay plate contained the following controls: cell control wells (cells only), virus control wells (cells plus virus), compound toxicity control wells (cells plus compound only), compound colorimetric control wells (compound only), as well as the experimental wells (compound plus cells plus virus). Cytoprotection and compound cytotoxicity were assessed by MTS (CellTiter® 96 Reagent, Promega, Madison Wis.) dye reduction, and the IC50 (concentration inhibiting virus replication by 50%), TC50 (concentration resulting in 50% cell death) and a calculated T1 (therapeutic index TC50/IC50) were obtained. Each assay included the HIV reverse transcriptase inhibitor AZT as a positive control.

[1] = Compound cytotoxicity on uninfected CEM-SS cells (MTS); type: cell-based; conditions: human, read-out: TC50 (concentration resulting in 50% cell death)
Description: as §2

HIV-1 = assay: Assay for virus release (HIV-1 p24 / VLP release) in Jurkat cells transfected with pNLenv1; type: cell-based; conditions: Human immunodeficiency virus 1, 24 h, VLP release one day after transfection, anti-CA immunoblot
Description: The POSH inhibitor Compound 1 was tested for its efficiency of viral budding and GAG expression and processing in treated and untreated Jurkat cells. The concentration of extracellular GAG p24 was used as an indication of viral budding.
Jurkat cells were incubated with Compound 1 for either 1 or 3 days. The next day, cells were transfected with the plasmid pNLenv1 (2 μg/ml). Virus-like particle (VLP) release was determined one day after transfection as follows: the culture medium of virus-expressing cells was collected and centrifuged at 500×g for 10 minutes. The resulting supernatant was passed through a 0.45 μm-pore filter and the filtrate was centrifuged at 14,000×g for 2 hours at 4° C. The corresponding cells were washed three times with phosphate-buffered saline (PBS) and then solubilized by incubation on ice for 15 minutes in lysis buffer containing the following components: 50 mM Hepes-NaOH, (pH 7.5), 150 mM NaCl, 1.5 mM MgCl2, 0.5% NP-40, 0.5% sodium deoxycholate, 1 mM EDTA, 1 mM EGTA and 1:200 dilution of protease inhibitor cocktail (EMD Biosciences, Inc.). […] The CA was detected after incubation with a secondary anti-rabbit horseradish peroxidase-conjugated antibody, and detected by Enhanced Chemi-Luminescence (ECL) (Amersham Biosciences, Corp.) and detected by fluorescence imaging (Typhoon Instrument, Amersham Biosciences, Corp.). […]

HIV-2ROD = assay: HIV cytoprotection assay, CEM-SS cells infected with HIV-2ROD (MTS); type: cell-based
Description: as §1, §2

| SMILES | IC50 (hPOSH) [µM] | Antiviral Index (TI), TC50/IC50 (HIV-1IIIB; HIV-1IIIB, CEM-SS cells) | IC50 (HIV-1IIIB; Human immunodeficiency virus 1, CEM-SS, 144 h) [µM] | CC50 at 6 days ([1]; Table 1 (HIV-1IIIB experiment)) [µM] | IC50 (HIV-1) [µM] | IC50 (HIV-1IIIB; Human immunodeficiency virus 1, 144 h, HIV-1IIIB, CEM-SS cells, 6 days) [µM] | CC50 at 6 days ([1]; Table 2 (HIV-2ROD experiment)) [µM] | Antiviral Index (TI), TC50/IC50 (HIV-2ROD) | IC50 (HIV-2ROD; Human immunodeficiency virus 2, 144 h, 6 days, read-out: IC50 (concentration inhibiting virus replication by 50%)) [µM] |
| --- | --- | --- | --- | --- | --- | --- | --- | --- | --- |
| Cc1cc(C)nc(NS(=O)(=O)c2cc(Cl)ccc2Cl)n1 [Compound 1, 2,5-dichloro-N-(4,6-dimethylpyrimidin-2-yl)benzenesulfonamide] | 12 | >1.61 | 62 | > 100 | 100 |  |  |  |  |
| Cc1cc(C)nc(NS(=O)(=O)c2cc(Cl)ccc2Cl)c1 [Compound 2, 2,5-dichloro-N-(4,6-dimethylpyridin-2-yl)benzenesulfonamide] |  | 28.5 |  | 114 |  | 3.99 | 169 | 3.80 | 44.4 |
